# Assay results as given in PMC5224920, “Assessing the mechanism and therapeutic potential of modulators of the human Mediator complex-associated protein kinases” (eLife, 2016).
# Test system: 12 single or co-culture in vitro tissue models of primary cells
# Assay: Culture/co-culture cell model panel, extracellular biomarkers (DiscoveRx); as to CCL2/MCP-1: reference of the scale not given here; as to CD141/Thrombomodulin: reference of the scale not given here; as to CD142/Tissue Factor: reference of the scale not given here; as to CD38: reference of the scale not given here; as to CD40: reference of the scale not given here; as to CD69: reference of the scale not given here; as to CXCL8/IL-8: reference of the scale not given here; as to CXCL9/MIG: reference of the scale not given here; as to IL-1alpha: reference of the scale not given here; as to M-CSF: reference of the scale not given here; as to PBMC Cytotoxicity: reference of the scale not given here; as to SRB: reference of the scale not given here; as to sPGE2: reference of the scale not given here; as to sTNF-alpha: reference of the scale not given here
# Assay type: cell-based, human
# [1] = HDF3CGF stimulated fibroblasts, 1.00E3 nM
# [2] = HDF3CGF stimulated fibroblasts, 1.00E4 nM
# [3] = HPNo Huvec+PBMC unstimulated, 1.00E0 nM
# [4] = HPNo Huvec+PBMC unstimulated, 1.00E1 nM
# [5] = HPNo Huvec+PBMC unstimulated, 1.00E2 nM
# [6] = HPNo Huvec+PBMC unstimulated, 1.00E3 nM
# [7] = HPNo Huvec+PBMC unstimulated, 1.00E4 nM
structure (smiles),measurement,setting,value
Cn1ncc2cc(-c3cnc(N)c(Cl)c3N3CCC4(CCNC4=O)CC3)ccc21 [CMPD 3],EGFR,[1],-0.071
same,M-CSF,[1],-0.083
same,MMP-1,[1],0.021
same,PAI-I,[1],-0.046
same,Proliferation_72hr,[1],-0.287
same,SRB,[1],-0.024
same,TIMP-1,[1],-0.058
same,TIMP-2,[1],0.170
same,CCL2/MCP-1,[2],-0.120
same,CD54/ICAM-1,[2],-0.048
same,CD106/VCAM-1,[2],0.030
same,CXCL8/IL-8,[2],-0.092
same,CXCL9/MIG,[2],-0.077
same,CXCL10/IP-10,[2],0.009
same,CXCL11/I-TAC,[2],-0.045
same,Collagen I,[2],0.097
same,Collagen III,[2],0.0018
same,EGFR,[2],0.023
same,M-CSF,[2],-0.150
same,MMP-1,[2],0.056
same,PAI-I,[2],-0.210
same,Proliferation_72hr,[2],-0.515
same,SRB,[2],-0.209
same,TIMP-1,[2],-0.045
same,TIMP-2,[2],0.276
same,CCL2/MCP-1,[3],0.009
same,CD38,[3],0.004
same,CD40,[3],-0.028
same,CD106/VCAM-1,[3],0.042
same,CD141/Thrombomodulin,[3],0.010
same,CD142/Tissue Factor,[3],0.089
same,CCL2/MCP-1,[4],0.017
same,CD38,[4],-0.049
same,CD40,[4],-0.059
same,CD106/VCAM-1,[4],0.134
same,CD141/Thrombomodulin,[4],-0.016
same,CD142/Tissue Factor,[4],0.039
same,CCL2/MCP-1,[5],0.001
same,CD38,[5],-0.011
same,CD40,[5],-0.067
same,CD106/VCAM-1,[5],0.206
same,CD141/Thrombomodulin,[5],0.008
same,CD142/Tissue Factor,[5],0.039
same,CCL2/MCP-1,[6],-0.049
same,CD38,[6],-0.041
same,CD40,[6],-0.024
same,CD106/VCAM-1,[6],0.098
same,CD141/Thrombomodulin,[6],0.007
same,CD142/Tissue Factor,[6],0.007
same,CCL2/MCP-1,[7],-0.004
same,CD38,[7],-0.070
same,CD40,[7],-0.022
same,CD106/VCAM-1,[7],0.069
same,CD141/Thrombomodulin,[7],0.032
same,CD142/Tissue Factor,[7],-0.024
same,CD69,"HPNo, 1.00E0 nM",-0.011
same,CXCL8/IL-8,"HPNo, 1.00E0 nM",0.034
same,CXCL9/MIG,"HPNo, 1.00E0 nM",0.060
same,M-CSF,"HPNo, 1.00E0 nM",0.037
same,SRB,"HPNo, 1.00E0 nM",-0.058
same,sPGE2,"HPNo, 1.00E0 nM",0.025
same,sTNF-alpha,"HPNo, 1.00E0 nM",0.138
same,CD69,"HPNo, 1.00E1 nM",-0.011
same,CXCL8/IL-8,"HPNo, 1.00E1 nM",0.00458
same,CXCL9/MIG,"HPNo, 1.00E1 nM",0.092
same,M-CSF,"HPNo, 1.00E1 nM",0.011
same,SRB,"HPNo, 1.00E1 nM",-0.00131
same,sPGE2,"HPNo, 1.00E1 nM",0.022
same,sTNF-alpha,"HPNo, 1.00E1 nM",0.068
same,CD69,"HPNo, 1.00E2 nM",0.017
same,CXCL8/IL-8,"HPNo, 1.00E2 nM",-0.00647
same,CXCL9/MIG,"HPNo, 1.00E2 nM",0.045
same,M-CSF,"HPNo, 1.00E2 nM",-0.043
same,SRB,"HPNo, 1.00E2 nM",0.006
same,sPGE2,"HPNo, 1.00E2 nM",0.139
same,sTNF-alpha,"HPNo, 1.00E2 nM",0.492
same,CD69,"HPNo, 1.00E3 nM",-0.017
same,CXCL8/IL-8,"HPNo, 1.00E3 nM",-0.012
same,CXCL9/MIG,"HPNo, 1.00E3 nM",0.014
same,M-CSF,"HPNo, 1.00E3 nM",-0.056
same,SRB,"HPNo, 1.00E3 nM",0.008
same,sPGE2,"HPNo, 1.00E3 nM",0.056
same,sTNF-alpha,"HPNo, 1.00E3 nM",-0.00633
same,CD69,"HPNo, 1.00E4 nM",0.004
same,CXCL8/IL-8,"HPNo, 1.00E4 nM",-0.002
same,CXCL9/MIG,"HPNo, 1.00E4 nM",-0.052
same,M-CSF,"HPNo, 1.00E4 nM",-0.079
same,SRB,"HPNo, 1.00E4 nM",-0.058
same,sPGE2,"HPNo, 1.00E4 nM",0.016
same,sTNF-alpha,"HPNo, 1.00E4 nM",0.025
same,CCL2/MCP-1,"LPS Huvec+PBMC, 1.00E0 nM",0.009
same,CD40,"LPS Huvec+PBMC, 1.00E0 nM",-0.011
same,CD69,"LPS Huvec+PBMC, 1.00E0 nM",0.028
same,CD106/VCAM-1,"LPS Huvec+PBMC, 1.00E0 nM",0.028
same,CD141/Thrombomodulin,"LPS Huvec+PBMC, 1.00E0 nM",0.019
same,CD142/Tissue Factor,"LPS Huvec+PBMC, 1.00E0 nM",0.057
same,CXCL8/IL-8,"LPS Huvec+PBMC, 1.00E0 nM",0.020
same,IL-1alpha,"LPS Huvec+PBMC, 1.00E0 nM",0.064
same,M-CSF,"LPS Huvec+PBMC, 1.00E0 nM",0.051
same,SRB,"LPS Huvec+PBMC, 1.00E0 nM",-0.018
same,sPGE2,"LPS Huvec+PBMC, 1.00E0 nM",0.033
same,sTNF-alpha,"LPS Huvec+PBMC, 1.00E0 nM",0.017
same,CCL2/MCP-1,"LPS Huvec+PBMC, 1.00E1 nM",-0.00212
same,CD40,"LPS Huvec+PBMC, 1.00E1 nM",-0.078
same,CD69,"LPS Huvec+PBMC, 1.00E1 nM",-0.00157
same,CD106/VCAM-1,"LPS Huvec+PBMC, 1.00E1 nM",0.056
same,CD141/Thrombomodulin,"LPS Huvec+PBMC, 1.00E1 nM",0.042
same,CD142/Tissue Factor,"LPS Huvec+PBMC, 1.00E1 nM",0.050
same,CXCL8/IL-8,"LPS Huvec+PBMC, 1.00E1 nM",-0.028
same,IL-1alpha,"LPS Huvec+PBMC, 1.00E1 nM",-0.012
same,M-CSF,"LPS Huvec+PBMC, 1.00E1 nM",-0.018
same,SRB,"LPS Huvec+PBMC, 1.00E1 nM",-0.053
same,sPGE2,"LPS Huvec+PBMC, 1.00E1 nM",0.128
same,sTNF-alpha,"LPS Huvec+PBMC, 1.00E1 nM",0.024
same,CCL2/MCP-1,"LPS Huvec+PBMC, 1.00E2 nM",-0.069
same,CD40,"LPS Huvec+PBMC, 1.00E2 nM",-0.092
same,CD69,"LPS Huvec+PBMC, 1.00E2 nM",0.048
same,CD106/VCAM-1,"LPS Huvec+PBMC, 1.00E2 nM",0.047
same,CD141/Thrombomodulin,"LPS Huvec+PBMC, 1.00E2 nM",0.046
same,CD142/Tissue Factor,"LPS Huvec+PBMC, 1.00E2 nM",0.071
same,CXCL8/IL-8,"LPS Huvec+PBMC, 1.00E2 nM",-0.091
same,IL-1alpha,"LPS Huvec+PBMC, 1.00E2 nM",-0.007
same,M-CSF,"LPS Huvec+PBMC, 1.00E2 nM",-0.020
same,SRB,"LPS Huvec+PBMC, 1.00E2 nM",-0.076
same,sPGE2,"LPS Huvec+PBMC, 1.00E2 nM",0.096
same,sTNF-alpha,"LPS Huvec+PBMC, 1.00E2 nM",0.028
same,CCL2/MCP-1,"LPS Huvec+PBMC, 1.00E3 nM",-0.112
same,CD40,"LPS Huvec+PBMC, 1.00E3 nM",-0.089
same,CD69,"LPS Huvec+PBMC, 1.00E3 nM",0.015
same,CD106/VCAM-1,"LPS Huvec+PBMC, 1.00E3 nM",0.022
same,CD141/Thrombomodulin,"LPS Huvec+PBMC, 1.00E3 nM",0.052
same,CD142/Tissue Factor,"LPS Huvec+PBMC, 1.00E3 nM",0.071
same,CXCL8/IL-8,"LPS Huvec+PBMC, 1.00E3 nM",-0.169
same,IL-1alpha,"LPS Huvec+PBMC, 1.00E3 nM",-0.064
same,M-CSF,"LPS Huvec+PBMC, 1.00E3 nM",-0.008
same,SRB,"LPS Huvec+PBMC, 1.00E3 nM",-0.082
same,sPGE2,"LPS Huvec+PBMC, 1.00E3 nM",0.040
same,sTNF-alpha,"LPS Huvec+PBMC, 1.00E3 nM",-0.030
same,CCL2/MCP-1,"LPS Huvec+PBMC, 1.00E4 nM",-0.187
same,CD40,"LPS Huvec+PBMC, 1.00E4 nM",-0.133
same,CD69,"LPS Huvec+PBMC, 1.00E4 nM",-0.043
same,CD106/VCAM-1,"LPS Huvec+PBMC, 1.00E4 nM",0.00362
same,CD141/Thrombomodulin,"LPS Huvec+PBMC, 1.00E4 nM",0.038
same,CD142/Tissue Factor,"LPS Huvec+PBMC, 1.00E4 nM",0.121
same,CXCL8/IL-8,"LPS Huvec+PBMC, 1.00E4 nM",-0.222
same,IL-1alpha,"LPS Huvec+PBMC, 1.00E4 nM",-0.226
same,M-CSF,"LPS Huvec+PBMC, 1.00E4 nM",-0.022
same,SRB,"LPS Huvec+PBMC, 1.00E4 nM",-0.142
same,sPGE2,"LPS Huvec+PBMC, 1.00E4 nM",0.008
same,sTNF-alpha,"LPS Huvec+PBMC, 1.00E4 nM",-0.328
same,CCL2/MCP-1,"SAg, 1.00E0 nM",0.030
same,CD38,"SAg, 1.00E0 nM",0.023
same,CD40,"SAg, 1.00E0 nM",-0.041
same,CD69,"SAg, 1.00E0 nM",0.00162
same,CXCL8/IL-8,"SAg, 1.00E0 nM",0.064
same,CXCL9/MIG,"SAg, 1.00E0 nM",0.013
same,PBMC Cytotoxicity,"SAg, 1.00E0 nM",0.039
same,Proliferation,"SAg, 1.00E0 nM",0.019
same,SRB,"SAg, 1.00E0 nM",-0.013
same,CCL2/MCP-1,"SAg, 1.00E1 nM",-0.016
same,CD38,"SAg, 1.00E1 nM",-0.043
same,CD40,"SAg, 1.00E1 nM",-0.128
same,CD69,"SAg, 1.00E1 nM",0.037
same,CXCL8/IL-8,"SAg, 1.00E1 nM",-0.047
same,CXCL9/MIG,"SAg, 1.00E1 nM",-0.015
same,PBMC Cytotoxicity,"SAg, 1.00E1 nM",0.014
same,Proliferation,"SAg, 1.00E1 nM",0.030
same,SRB,"SAg, 1.00E1 nM",-0.033
same,CCL2/MCP-1,"SAg, 1.00E2 nM",-0.038
same,CD38,"SAg, 1.00E2 nM",-0.050
same,CD40,"SAg, 1.00E2 nM",-0.143
same,CD69,"SAg, 1.00E2 nM",0.053
same,CXCL8/IL-8,"SAg, 1.00E2 nM",-0.167
same,CXCL9/MIG,"SAg, 1.00E2 nM",-0.040
same,PBMC Cytotoxicity,"SAg, 1.00E2 nM",0.014
same,Proliferation,"SAg, 1.00E2 nM",0.018
same,SRB,"SAg, 1.00E2 nM",-0.052
same,CCL2/MCP-1,"SAg, 1.00E3 nM",-0.092
same,CD38,"SAg, 1.00E3 nM",-0.050
same,CD40,"SAg, 1.00E3 nM",-0.108
same,CD69,"SAg, 1.00E3 nM",0.059
same,CXCL8/IL-8,"SAg, 1.00E3 nM",-0.271
same,CXCL9/MIG,"SAg, 1.00E3 nM",-0.072
same,PBMC Cytotoxicity,"SAg, 1.00E3 nM",-0.014
same,Proliferation,"SAg, 1.00E3 nM",0.007
same,SRB,"SAg, 1.00E3 nM",-0.055
same,CCL2/MCP-1,"SAg, 1.00E4 nM",-0.171
same,CD38,"SAg, 1.00E4 nM",-0.109
same,CD40,"SAg, 1.00E4 nM",-0.222
same,CD69,"SAg, 1.00E4 nM",-0.076
same,CXCL8/IL-8,"SAg, 1.00E4 nM",-0.221
same,CXCL9/MIG,"SAg, 1.00E4 nM",-0.086
same,PBMC Cytotoxicity,"SAg, 1.00E4 nM",-0.027
same,Proliferation,"SAg, 1.00E4 nM",-0.217
same,SRB,"SAg, 1.00E4 nM",-0.150
